Experimental data published in publication PMC7894038 (Antiviral research, 2020).
Where two headings read alike, the source gives them in different places.

Biological target: eNP-CTD (Ebola virus nucleoprotein C-terminal domain, residues 641-739) (Zaire ebolavirus, UniProt P18272)
Test: biochemical
Format: binding

Sequence of eNP-CTD (Ebola virus nucleoprotein C-terminal domain, residues 641-739) (P18272 641-739 limits assumed): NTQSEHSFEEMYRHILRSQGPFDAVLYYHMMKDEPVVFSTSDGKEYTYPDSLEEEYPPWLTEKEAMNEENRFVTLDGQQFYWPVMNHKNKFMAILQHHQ

CNCC1CCN(Cc2cccnc2)CC1 [CC69846, N-methyl-[1-(pyrid-3-ylmethyl)piperid-4-yl]methylamine]
Site 1 ligand efficiency: 1.6 ± 0.2 (0.24)
Site 3 ligand efficiency: 1.9 ± 0.3 (0.24)
Site 4 ligand efficiency: 4.9 ± 1.8 (0.20)
Kd (Site 1 Kd ± Std. Error): 1600 µM
Kd (Site 3 Kd ± Std. Error): > 1630 µM
Kd (Site 4 Kd ± Std. Error): > 1630 µM
Site 2 Kd ± Std. Error (pH 7): did not bind
Site 4 Kd ± Std. Error (pH 7): lower affinity
Kd (read-out: Site 2 Kd ± Std. Error, pH 7): > 7000 µM
